# Results as given in US8541002B2, “Vaccine for treatment and prevention of herpes simplex virus infection” (Agenus Inc., priority 2003, dated 2013).
# Where no end group is shown, it is not given here.
# Test: Turbidity assay for solubility of the peptides
# Type: physicochemical
# Conditions: solubility of the antigenic peptides in water or Dimethyl Sulfoxide (DMSO)
# Method: A number of antigenic peptides of the invention were synthesized by chemical synthesis as described in Section 5.1.1.
# A turbidity assay was used to assess the solubility of the peptides. Turbidity assays used either a Varian Cary double-beam spectrophotometer, or a Molecular Devices Spectromax absorbance plate reader (for high throughput experiments). The spectrophotometer assay read every 2 nm between 340 nm and 360 nm, and averaged the values. Samples were analyzed in duplicate using a quartz micro-cuvette that holds about 200 uL. The plate reader assay used a 96-well plate format that read every 4 nm between 340 nm and 360 nm and averaged those values. Samples in this assay were run in triplicate.
row,Compound,Solubility
1,CC[C@H](C)[C@H](NC(=O)[C@H](CO)NC(=O)[C@H](CC(=O)O)NC(=O)[C@@H](NC(=O)[C@@H](NC(=O)[C@@H](NC(=O)CNC(=O)[C@H](CCC(N)=O)NC(=O)[C@H](CCC(N)=O)NC(=O)[C@H](Cc1ccc(O)cc1)NC(=O)[C@H](C)NC(=O)[C@H](CCCCN)NC(=O)[C@@H](N)CO)C(C)C)[C@@H](C)O)C(C)C)C(=O)NCC(=O)N[C@@H](CCSC)C(=O)N[C@@H](CC(C)C)C(=O)N1CCC[C@H]1C(=O)N[C@@H](CCCNC(=N)N)C(=O)N[C@@H](Cc1ccccc1)C(=O)N[C@H](C(=O)N1CCC[C@H]1C(=O)N[C@@H](CCC(=O)O)C(=O)N[C@@H](CC(N)=O)C(=O)N[C@@H](CCC(N)=O)C(=O)N[C@@H](CCCNC(=N)N)C(=O)N[C@H](C(=O)N[C@H](C(=O)N[C@@H](C)C(=O)N[C@@H](CC(C)C)C(=O)N[C@@H](Cc1ccc(O)cc1)C(=O)N[C@@H](CO)C(=O)N[C@@H](CC(C)C)C(=O)N[C@@H](CCCCN)C(=O)N[C@H](C(=O)N[C@@H](C)C(=O)O)[C@@H](C)CC)C(C)C)[C@@H](C)O)[C@@H](C)CC [US06-3],water
2,CC(C)C[C@H](NC(=O)[C@@H]1CCCN1C(=O)[C@@H](NC(=O)[C@H](CO)NC(=O)[C@H](C)NC(=O)[C@H](CO)NC(=O)[C@H](CO)NC(=O)[C@H](CCCNC(=N)N)NC(=O)[C@@H](NC(=O)[C@H](CO)NC(=O)[C@@H](N)CC(=O)O)C(C)C)C(C)C)C(=O)N[C@@H](Cc1ccc(O)cc1)C(=O)N1CCC[C@H]1C(=O)N[C@@H](C)C(=O)N[C@@H](C)C(=O)N[C@@H](CO)C(=O)N1CCC[C@H]1C(=O)N[C@H](C(=O)N1CCC[C@H]1C(=O)N[C@@H](C)C(=O)N[C@@H](CCC(=O)O)C(=O)N[C@@H](C)C(=O)N[C@@H](Cc1ccc(O)cc1)C(=O)N[C@@H](Cc1ccc(O)cc1)C(=O)N[C@@H](CO)C(=O)N[C@@H](CCC(=O)O)C(=O)N[C@@H](CO)C(=O)N[C@@H](CCC(=O)O)C(=O)N[C@@H](CC(=O)O)C(=O)N[C@@H](CCC(=O)O)C(=O)N[C@@H](C)C(=O)N[C@@H](C)C(=O)N[C@@H](CC(N)=O)C(=O)N[C@@H](CC(=O)O)C(=O)N[C@@H](Cc1ccccc1)C(=O)O)C(C)C [US09-2],water
3,AAGKRGDSGLLRVCAALSIPKPSEAVRPSRIPRAP [US11-2],water
4,AGLPSPVPYAPLGSPDPSSPRQRTYVLPRVGIHNA [US10-1],water
5,ARLRLEARLGHLVAAILEREQSLVAHALGYQLAFV [UL22-4],water
6,ASSQSKPLATQPPVLALSNAPPRRVSPTRGRRRHT [UL01-3],water
7,ATYLLNYAGRIVSSVFLQYPYTKITRLLCELSVQR [UL53-1],DMSO
8,DEAFPIEYVLRLMNDWADVPCNPYLRVQNTGVSVL [UL34-1],DMSO
9,DEVAPDHEAELYARVQRPGPVPDAEPIYDTVEGYA [UL10-5],water
10,DRPPESPGSELYPLNAQALAHLQMLPADHRAFFRT [US10-2],water
11,DRPSAYGTWVRVRVFRPPSLTIHPHAVLEGQPFKA [UL44-4],water
12,GPGASPRLYSVVGPLGRQRLIIEELTLETQGMYYW [UL44-1],water
13,ILSPGALAAIENYVRFSADRLLGLIHMQPLYSAPA [UL40-2],water
14,IVGILGCAAVGAAPTGPASDTTNATARLPTHPPLI [US05-2],water
15,LEVIFPTTDAKLNYLSRTQRLASLLTYAGPIKAPD [UL33-1],water
16,LSGIAVRLCYIAVVAGVVLVALRYEQEIQRRLFDL [UL53-2],DMSO
17,PATLIPRAAAKHLAALTRVQAERSSGYWWVNGDGI [UL45-1],water
18,PQPPLPQPPLPQPPLPQPPLPPVTRTLTPQSRDSV [UL36-3],water
19,RAYLVNPFLFAAGFLEDLSHSVFPADTQETTTRRA [UL01-1],water
20,RTLAVRGDASLCQLLFGHPVDAVILRQATRRPRIT [UL16-2],water
21,SRLPPHTQPVFSKRVVMFAWSFLVLKPLELVAAGM [UL20-1],water
22,SSDVPSVALLLFPNGTVIHLLAFDTLPIATIAPGF [UL22-3],DMSO
23,TQDTACVHGELLARKRERFAAVINRFLDLHQILRG [UL33-2],water
24,VAPACIIAAVLAYYVTWLARALLLYVNIKRDRLPL [UL20-2],DMSO
25,VHSRVYNIIQLVLFHNNDQARRAYVARTINHPAIR [UL40-3],water
26,VNSAETNTHGLAYDVPEGIRRHLRNPKIRRAFTEQ [UL13-2],water
27,VSIIALTELYFILRRGSAPKNAEPAAPRGRSKGWS [UL53-3],water
28,VSPAHPQTPVGAGSRDLSLKGTPSDGMQPRGADTL [US11-1],water
29,VTTAEFPRDPGQLLYIPKTYLLGRPRNASLPELPE [UL22-1],water
